Toxic doses and inconclusive results are not listed. The calls were made as follows: active = survival T/C of 150% or more; inactive = T/C below 125% in these data.
System: BDF1 mice, P388 leukemia ip, median survival T/C
Experiment: NCI In Vivo Anticancer Drug Screen. Data for tumor model P388 Leukemia (intraperitoneal) in B6D2F1 (BDF1) mice
Settings: endpoint: median survival time, higher = longer survival
In short: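 T/C = treated-group survival ÷ vehicle-control survival; tumour transplanted into mice before dosing.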

[1] = dose: 100.0 mg/kg/injection, schedule: Q01DX009 (ip), vehicle: Klucel (hydroxypropylcellulose) (HPC)
[2] = dose: 200.0 mg/kg/injection, schedule: Q01DX009 (ip), vehicle: Klucel (hydroxypropylcellulose) (HPC)
[3] = dose: 100.0 mg/kg/injection, schedule: Q01DX009 (ip), vehicle: saline with Tween-80
[4] = dose: 200.0 mg/kg/injection, schedule: Q01DX009 (ip), vehicle: saline with Tween-80
[5] = dose: 400.0 mg/kg/injection, schedule: Q01DX009 (ip), vehicle: saline with Tween-80

Measured: T/C

O=Cc1nc2ccccc2c2ccccc12
inactive: dose: 100.0 mg/kg/injection, schedule: Q01DX001 (ip), vehicle: saline sonified 100 % of control | dose: 200.0 mg/kg/injection, schedule: Q01DX001 (ip), vehicle: saline sonified 100 % of control | dose: 400.0 mg/kg/injection, schedule: Q01DX001 (ip), vehicle: saline sonified 100 % of control

CCOC(=O)c1c[nH]c2cc(C(F)(F)F)ccc2c1=O
inactive: dose: 6.25 mg/kg/injection, schedule: Q01DX009 (ip), vehicle: gum acacia 116 % of control | dose: 12.5 mg/kg/injection, schedule: Q01DX009 (ip), vehicle: gum acacia 100 % of control | dose: 25.0 mg/kg/injection, schedule: Q01DX009 (ip), vehicle: gum acacia 98 % of control | dose: 25.0 mg/kg/injection, schedule: Q04DX003 (ip), vehicle: gum acacia 91 % of control | dose: 100.0 mg/kg/injection, schedule: Q04DX003 (ip), vehicle: gum acacia 87 % of control

CC[C@@H]1C[C@@H]2CN3CCc4c([nH]c5ccc(OC)cc45)C(C(=O)OC)(C2)C13
inactive: dose: 50.0 mg/kg/injection, schedule: Q01DX009 (ip), vehicle: Klucel (hydroxypropylcellulose) (HPC) 108 % of control | [1] 113 % of control | [2] 113 % of control

COCCc1ccncc1
inactive: [3] 101 % of control | [4] 97 % of control

C=CC(OC)OC
inactive: dose: 6.25 mg/kg/injection, schedule: Q04DX003 (ip), vehicle: saline 95 % of control | dose: 12.5 mg/kg/injection, schedule: Q04DX003 (ip), vehicle: saline 100 % of control | dose: 25.0 mg/kg/injection, schedule: Q04DX003 (ip), vehicle: saline 104 % of control

Cc1cc(Cl)n[nH]1
inactive: dose: 25.0 mg/kg/injection, schedule: Q01DX009 (ip), vehicle: saline with Tween-80 98 % of control

COc1cccc(NN)c1
inactive: dose: 25.0 mg/kg/injection, schedule: Q01DX009 (ip), vehicle: saline 113 % of control | dose: 50.0 mg/kg/injection, schedule: Q01DX009 (ip), vehicle: saline 104 % of control | dose: 50.0 mg/kg/injection, schedule: Q04DX003 (ip), vehicle: saline 100 % of control | dose: 100.0 mg/kg/injection, schedule: Q04DX003 (ip), vehicle: saline 91 % of control

Nc1nc(SCCc2ccccc2)c2[nH]cnc2n1
inactive: [3] 109 % of control | dose: 100.0 mg/kg/injection, schedule: Q04DX003 (ip), vehicle: saline with Tween-80 104 % of control | [4] 100 % of control | dose: 200.0 mg/kg/injection, schedule: Q04DX003 (ip), vehicle: saline with Tween-80 100 % of control | [5] 90 % of control | dose: 400.0 mg/kg/injection, schedule: Q04DX003 (ip), vehicle: saline with Tween-80 104 % of control

O=C(O)CSc1ccc(NC(=O)NC2CCCCC2)cc1
inactive: [3] 105 % of control | [4] 115 % of control | [5] 105 % of control

CN1CCOP1OCC(F)(F)F (stereo not drawn)
inactive: dose: 25.0 mg/kg/injection, schedule: Q01DX005 (ip), vehicle: saline 104 % of control | dose: 50.0 mg/kg/injection, schedule: Q01DX005 (ip), vehicle: saline 93 % of control | dose: 100.0 mg/kg/injection, schedule: Q01DX005 (ip), vehicle: saline 109 % of control

COc1ccc(C2CCCCC2O)cc1 (stereo not drawn)
inactive: [1] 100 % of control | dose: 100.0 mg/kg/injection, schedule: Q04DX003 (ip), vehicle: Klucel (hydroxypropylcellulose) (HPC) 100 % of control | [2] 100 % of control | dose: 200.0 mg/kg/injection, schedule: Q04DX003 (ip), vehicle: Klucel (hydroxypropylcellulose) (HPC) 100 % of control | dose: 400.0 mg/kg/injection, schedule: Q04DX003 (ip), vehicle: Klucel (hydroxypropylcellulose) (HPC) 110 % of control
